Consider two compounds from patent publication US10508130B2, “Crystalline polymorph of 15B-hydroxy-osaterone acetate” (ASKA Pharmaceutical Co., Ltd., priority 2016, dated 2019).

Data set [1] in a line: Thermal stability test (storage at 100° C., purity by HPLC). The settings on record: in air; for colour of crystal with the passage of time / colour of crystal on the seventh day after storage: 100° C.; for colour of crystal with the passage of time: after seventh day up to 28 days. It counts as physicochemical. On the procedure: The crystalline polymorphic form A obtained in Example 1 and the crystalline polymorphic form B obtained in Comparative Example 1 were each stored at a temperature of 100° C. for 28 days (storage condition: in a thermostatic bath, in air). During the storage, the crystals were sampled every predetermined time, and the purity of 15β-hydroxy-osaterone acetate in each sample was measured by HPLC.

Data set [2] can be described thus: Friction or pulverization stability (automatic mortar grinder, PXRD). In kind it is physicochemical. The note with it: 50 mg pulverized one hour, pestle 124 g, 50 rpm; PXRD peak height ratio. On the procedure: In an automatic mortar grinder (weight of pestle: 124 g, 50 rpm), 50 mg of a sample (the crystalline polymorphic form A or the crystalline polymorphic form B) was put, the sample was pulverized over one hour and sampled. A PXRD analysis of the sample was conducted to determine the change of a degree of crystallization. The degree of crystallization after one hour of the crystalline polymorphic form A was 46.8%, and that of the crystalline polymorphic form B was 22.2%. Thus, the crystalline polymorphic form A was stable to pulverization. Incidentally, the degree of crystallization was determined based on an intensity ratio (peak height) of a characteristic diffraction peak in the PXRD spectrum (for the crystalline polymorphic form A, a diffraction peak at 2θ=17.1°; for the crystalline polymorphic form B, a diffraction peak at 2θ=16.2°), and the change rate of crystallization degree was calculated.

Data set [3] can be described thus: Angle of repose (powder flow property). In kind it is physicochemical. The settings on record: for Angle of repose (°) Average: average of three measurements; for Degree of flow property: evaluated based on Japanese Pharmacopoeia, General Information (Powder Flow); for Angle of repose (°) First time: first measurement; for Angle of repose (°) Second time: second measurement; for Angle of repose (°) Third time: third measurement. How it is done:
Probably due to being the prism crystal, the crystalline polymorphic form A of 15β-hydroxy-osaterone acetate is characterized by a high powder flow property and a small angle of repose. For example, the powdery crystalline polymorphic form A of 15β-hydroxy-osaterone acetate has an average angle of repose of, for example, about 30 to 38°, preferably about 32 to 37° (e.g., about 33 to 37°), and more preferably about 34 to 36°, when the angle of repose is measured three times in accordance with methods for angle of repose described in The Japanese Pharmacopoeia. Incidentally, the crystalline polymorphic form B of 15β-hydroxy-osaterone acetate has an average angle of repose of, for example, about 42 to 52° (e.g., about 44 to 50°, particularly about 45 to 47°) by the same measurement as above. The angle of repose can be evaluated as the following manner. A funnel (a glass funnel having a funnel diameter of 50 mm, a stem internal diameter of 7 mm, and a stem length of 40 mm) is provided, the height from the lower end of the funnel to a base surface (an upper surface of a cylinder having a diameter of 1.5 cm) is fixed to 4.5 cm, an excess amount of a powdery sample is dropped onto the center of the cylinder surface (the base surface) through the funnel, and an incident angle of the resulting accumulated powder is measured.
The height from a lower end of a funnel to a base surface (an upper surface of a cylinder having a diameter of 1.5 cm) was fixed to 4.5 cm, an excess amount of a powdery sample was dropped onto the center of the cylinder surface (the base surface) through the funnel. An incident angle (an angle of repose) of the resulting accumulated powder was measured. This operation was repeated three times, and the average value of the angle of repose was calculated.
In Table 1, the degree of flow property is evaluated based on Japanese Pharmacopoeia, General Information (G2 Solid-state Properties, Powder Flow), which is described about the relationship between the angle of repose and the flow property.

Data set [4] is described as follows: Stability (stir-suspension) in mixed solvents. It counts as physicochemical. The note with it: for stability of crystal form to the solvents commonly used in production of preparations: acetone/heptane, acetone/water, ethanol/water mixed solvents; for proportion maintaining crystal structure: stirred. How it is done:
To (1) an acetone/heptane mixed solvent (1:1), (2) an acetone/water mixed solvent (1:1), or (3) an ethanol/water mixed solvent (1:1) was added the crystalline polymorphic form A, and the mixture was stirred. One day after, the crystalline polymorphic form A maintained a crystal structure thereof at a proportion of 98% in the mixed solvent (1), 99% in the mixed solvent (2), and 100% in the mixed solvent (3). Three days after, the crystalline polymorphic form A maintained a crystal structure thereof at a proportion of 95% in the mixed solvent (1), 98% in the mixed solvent (2), and 99% in the mixed solvent (3). Even seven days after, the crystalline polymorphic form A maintained a crystal structure thereof at a proportion of 95% in the mixed solvent (1), 98% in the mixed solvent (2), and 99% in the mixed solvent (3).

Data set [5] is described as follows: Pharmacokinetics in dog (oral capsule, plasma LC-MS/MS). In kind it is in vivo. The settings on record: female dogs, 0.3 mg/kg oral, gelatin capsule with lactose hydrate, plasma 15β-hydroxy-osaterone acetate. On the procedure: For each sample of the crystalline polymorphic form A obtained in Example 1 and the crystalline polymorphic form B obtained in Comparative Example 1, the sample was mixed at a dose of 0.3 mg/kg with 100 mg of lactose hydrate (manufactured by DFE Pharma), and the mixture was filled with a gelatin capsule (manufactured by Matsuya Corporation, MM, size: No. 2) to prepare a capsule preparation. The capsule preparation containing the crystalline polymorphic form A was orally administered to a first female dog group (5 dogs), and the capsule preparation containing the crystalline polymorphic form B was orally administered to a second female dog group (5 dogs). The blood was sampled from each dog 0.5, 1, 2, 3, 4, 5, 7, 10, 24, 48, and 72 hours after oral administration, and the blood plasma from each sample was obtained by centrifugation. The concentration of 15β-hydroxy-osaterone acetate in each blood plasma was measured by an LC-MS/MS (liquid chromatography-tandem mass spectrometry) method, and a time to reach a maximum plasma concentration (Tmax) and a maximum plasma concentration (Cmax) were calculated.

Turning to `CC(=O)O[C@]1(C(C)=O)C[C@@H](O)[C@H]2[C@@H]3C=C(Cl)C4=CC(=O)OC[C@]4(C)[C@H]3CC[C@@]21C` [Crystalline polymorphic form B, 17α-acetoxy-6-chloro-15β-hydroxy-2-oxapregna-4,6-diene-3,20-dione, reference compound], in data set [1], the “colour of crystal with the passage of time” value was “turned brown” and the “colour of crystal on the seventh day after storage” value was “light brown”. Further, the “degree of crystallization after one hour” value in data set [2] is 22.2%. In data set [3], the “Angle of repose (°) Average” value is reported as 46 °, the “Degree of flow property” value is on record as “Poor”, the “Angle of repose (°) First time” value was 51 ° and the “Angle of repose (°) Second time” value worked out at 39 °. Further, in data set [3], the “Angle of repose (°) Third time” value is 48 °. For the same compound, the “stability of crystal form to the solvents commonly used in production of preparations” value in data set [4] is listed as “unstable”. Moreover, the “Tmax (time to reach a maximum plasma concentration)” value in data set [5] was determined as 5.8 ± 1.60 h. Also, in data set [5] (female, dog, plasma, po, 0.3 mg/kg, read-out: Cmax (maximum plasma concentration)), the Cmax is 128 ± 19.2 ng/mL.

For the compound `CC(=O)O[C@]1(C(C)=O)C[C@@H](O)[C@H]2[C@@H]3C=C(Cl)C4=CC(=O)OC[C@]4(C)[C@H]3CC[C@@]21C` [Crystalline polymorphic form A, 17α-acetoxy-6-chloro-15β-hydroxy-2-oxapregna-4,6-diene-3,20-dione], in data set [1], the “colour of crystal with the passage of time” value is “maintained light brown”. The “colour of crystal on the seventh day after storage” value in data set [1] is recorded as “light brown”. Also, the “thermal stability (active ingredient content / purity of 15β-hydroxy-osaterone acetate by HPLC)” value in data set [1] (stored at 100° C. for 28 days, thermostatic bath, FIG. 5) is “only a few decreases in active ingredient content”. In addition, the “degree of crystallization after one hour” value in data set [2] was determined as 46.8%. The “Angle of repose (°) Average” value in data set [3] was determined as 35 °. Also, in data set [3], the “Degree of flow property” value was “Good”. Also, the “Angle of repose (°) First time” value in data set [3] amounted to 36 °. Moreover, in data set [3], the “Angle of repose (°) Second time” value came out at 33 °. The “Angle of repose (°) Third time” value in data set [3] turned out to be 38 °. Also, the “proportion maintaining crystal structure” value is on record as 98% in data set [4] (acetone/heptane mixed solvent (1:1), one day after); 95% in data set [4] (acetone/heptane mixed solvent (1:1), seven days after); 95% in data set [4] (acetone/heptane mixed solvent (1:1), three days after); 99% in data set [4] (acetone/water mixed solvent (1:1), one day after); 98% in data set [4] (acetone/water mixed solvent (1:1), seven days after); 98% in data set [4] (acetone/water mixed solvent (1:1), three days after). The “proportion maintaining crystal structure” value was found to be 100% in data set [4] (ethanol/water mixed solvent (1:1), one day after); 99% in data set [4] (ethanol/water mixed solvent (1:1), seven days after); 99% in data set [4] (ethanol/water mixed solvent (1:1), three days after). Besides, the “stability of crystal form to the solvents commonly used in production of preparations” value in data set [4] is “highly stable”. Also, in data set [5], the “Cmax (maximum plasma concentration)” value was determined as 84.2 ± 29.06 ng/mL. For the same compound, the “Tmax (time to reach a maximum plasma concentration)” value in data set [5] is 13.8 ± 8.33 h.
